target: T1, BACE1 (Homo sapiens, UniProt P56817); assay: Cellular BACE1 Inhibition Assay (in vitro cellular Amyloidβ 1-40 production, HTRF immunoassay); assay type: cell-based; conditions: inhibition of Amyloidβ 1-40 production; HEK-293 cells stably transfected with wild type APP695; 48 hours incubation; single assay or mean of multiple assays
T1 construct: endogenous in cells; host or cells: HEK-293 cells stably transfected with wild type APP695
Experimental: The BACE inhibition properties of the compounds of the invention may be determined by the following in vitro cellular Amyloidβ 1-40 production assay.
Inhibition of Amyloidβ 1-40 production was determined by incubating cells with compound for 48 hours and quantifying the level of Amyloidβ 1-40 using an homogeneous time-resolved fluorescence (“HTRF”) immunoassay.
Materials and Methods: HEK-293 cells stably transfected with a DNA construct containing the coding sequence for the wild type APP695 sequence were grown in Dulbecco's Modified Eagle Medium (“DMEM”) supplemented with 10% fetal bovine serum, penicillin/streptomycin and 150 μg/mL G418. Cells were plated in 96-well plates at 35,000 cells/well and allowed to attach for 8-12 hours. Media was changed to DMEM supplemented with 10% fetal bovine serum, penicillin/streptomycin 15 minutes prior to compound addition. Diluted compounds were then added at a final concentration of 0.5% DMSO. After 48 hours, 4 μL of media from each well was added to a corresponding well of a 384 well plate (Perkin Elmer Cat#6008280) containing the HTRF reagents. HTRF reagents were obtained from the CisBio Amyloidβ 1-40 peptide assay kit (Cat# 62B40PEC) and were prepared as follows anti-peptide β (1-40)-Cryptate and anti-peptide β (1-40)-XL655 were stored in 2 plate aliquots at −80° C. Diluent and Reconstitution buffer were stored at 4° C. Aliquots of the two antibodies were diluted 1:100 with Reconstitution buffer, and this mixture was diluted 1:2 with Diluent. 12 μL of the reagent mixture was added to the required wells of the 384 well assay plate. The assay plate was incubated at 4° C. for 17 hours and then analyzed for fluorescence at 665 and 620 nm. The reported IC50 below may be from a single assay or the mean of multiple assays.

T1 sequence (P56817 46-501): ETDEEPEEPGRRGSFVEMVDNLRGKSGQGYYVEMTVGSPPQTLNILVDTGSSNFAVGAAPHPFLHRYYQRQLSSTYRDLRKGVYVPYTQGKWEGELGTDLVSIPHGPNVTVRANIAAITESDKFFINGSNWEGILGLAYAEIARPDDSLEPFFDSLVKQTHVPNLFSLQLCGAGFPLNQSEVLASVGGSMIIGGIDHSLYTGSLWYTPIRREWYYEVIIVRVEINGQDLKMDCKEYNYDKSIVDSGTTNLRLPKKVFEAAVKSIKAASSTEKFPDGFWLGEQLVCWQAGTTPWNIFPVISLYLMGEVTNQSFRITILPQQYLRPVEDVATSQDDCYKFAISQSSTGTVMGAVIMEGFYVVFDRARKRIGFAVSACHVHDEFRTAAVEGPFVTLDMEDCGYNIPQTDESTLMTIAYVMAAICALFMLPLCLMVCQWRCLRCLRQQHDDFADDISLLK

Structure (SMILES) | IC50
CN1C(=O)C2(N=C1N)c1cc(-c3cccnc3F)ccc1OC1CCC(F)(F)CC12 (stereo not shown) [Example 41, 2-amino-2′,2′-difluoro-7′-(2-fluoropyridin-3-yl)-1-methyl-1′,2′,3′,4′,4a′,9a′-hexahydrospiro[imidazole-4,9′-xanthen]-5(1H)-one] | 41.4 nM
CN1C(=O)C2(N=C1N)c1cc(-c3cccc(Cl)c3)ccc1OC1CC(F)(F)CCC12 (stereo not shown) [Example 35, 2-amino-7′-(3-chlorophenyl)-3′,3′-difluoro-1-methyl-1′,2′,3′,4′,4a′,9a′-hexahydrospiro[imidazole-4,9′-xanthen]-5(1H)-one] | 271 nM
COc1ccc2c(c1)C1(N=C(N)N(C)C1=O)[C@H]1COCC[C@@H]1C2 (stereo partly drawn) [Example 107, (4aS,10aS)-2′-amino-8-methoxy-1′-methyl-1,3,4,4a,5,10a-hexahydrospiro[benzo[g]isochromene-10,4′-imidazol]-5′(1′H)-one] | 801 nM
CN1C(=O)C2(N=C1N)c1cc(-c3cc(F)cc(Cl)c3)ccc1O[C@H]1CCCC[C@H]12 (relative stereo) [Example 32, cis 2-amino-7′-(3-chloro-5-fluorophenyl)-1-methyl-1′,2′,3′,4′,4a′,9a′-hexahydrospiro[imidazole-4,9′-xanthen]-5(1H)-one] | 426 nM
CN1C(=O)[C@]2(N=C1N)c1cc(-c3cccnc3F)ccc1O[C@H]1CCOCC12F (stereo partly drawn) [Example 99, (4R,4a′S)-2-amino-10a′-fluoro-8′-(2-fluoropyridin-3-yl)-1-methyl-3′,4′,4a′,10a′-tetrahydro-1′H-spiro[imidazole-4,10′-pyrano[4,3-b]chromen]-5(1H)-one] | 241 nM

Stronger by IC50, values ahead:

IC50 | Structure (SMILES)
36.2 nM | CN1C(=O)C2(N=C1N)c1cc(-c3cncnc3)ccc1OC1CC(O)CCC12 (stereo not shown) [Example 6, 2-amino-3′-hydroxy-1-methyl-7′-(pyrimidin-5-yl)-1′,2′,3′,4′,4a′,9a′-hexahydrospiro[imidazole-4,9′-xanthen]-5(1H)-one]
21.4 nM | CN1C(=O)C2(N=C1N)c1cc(-c3cccnc3F)ccc1OC1CC(F)(F)CCC12 (stereo not shown) [Example 19, 2-amino-3′,3′-difluoro-7′-(2-fluoropyridin-3-yl)-1-methyl-1′,2′,3′,4′,4a′,9a′-hexahydrospiro[imidazole-4,9′-xanthen]-5(1H)-one]
8.6 nM | CN1C(=O)C2(N=C1N)c1cc(-c3cncc(Cl)c3)ccc1O[C@H]1CCCC[C@@H]12 (relative stereo) [Example 15, trans 2-amino-7′-(5-chloropyridin-3-yl)-1-methyl-1′,2′,3′,4′,4a′,9a′-hexahydrospiro[imidazole-4,9′-xanthen]-5(1H)-one]
4.3 nM | CN1C(=O)[C@]2(N=C1N)c1cc(-c3cncc(C#N)c3)ccc1O[C@H]1CCCO[C@@H]12 [Example 79, 5-((4S,4a′S,10a′R)-2-amino-1-methyl-5-oxo-1,3′,4′,4a′,5,10a′-hexahydro-2′H-spiro[imidazole-4,10′-pyrano[3,2-b]chromen]-8′-yl)nicotinonitrile]
6.1 nM | CN1C(=O)C2(N=C1N)c1cc(-c3cncc(C(F)(F)F)c3)ccc1OC1CC(O)CCC12 (stereo not shown) [Example 5, 2-amino-3′-hydroxy-1-methyl-7′-(5-(trifluoromethyl)pyridin-3-yl)-1′,2′,3′,4′,4a′,9a′-hexahydrospiro[imidazole-4,9′-xanthen]-5(1H)-one]
